ChEMBL document CHEMBL3393012, “Osteoprotective effect of geraniin against ovariectomy-induced bone loss in rats” (Bioorg Med Chem Lett, 2015)
Active and inactive are the calls of the source.

How the values were obtained:
Type in all cases: functional, organism-based
Rattus norvegicus [1] = assay: Antiosteoporotic effect in OVX-induced Wistar rat osteoporosis model assessed as increase in serum calcium level at 20 to 40 mg/kg/day, ig administered for 2 weeks by colorimetric method relative to control
Rattus norvegicus [2] = assay: Antiosteoporotic effect in OVX-induced Wistar rat osteoporosis model assessed as increase in serum phosphorus level at 20 to 40 mg/kg/day, ig administered for 2 weeks by colorimetric method relative to control
Rattus norvegicus [3] = assay: Antiosteoporotic effect in OVX-induced Wistar rat osteoporosis model assessed as decrease in serum ALP level at 20 to 40 mg/kg/day, ig administered for 2 weeks by colorimetric method relative to control
Rattus norvegicus [4] = assay: Antiosteoporotic effect in OVX-induced Wistar rat osteoporosis model assessed as decrease in serum TRAP level at 20 to 40 mg/kg/day, ig administered for 2 weeks by colorimetric method relative to control
Rattus norvegicus [5] = assay: Antiosteoporotic effect in OVX-induced Wistar rat osteoporosis model assessed as increase in serum estradiol level at 40 mg/kg/day, ig administered for 2 weeks by RIA relative to control
Rattus norvegicus [6] = assay: Antiosteoporotic effect in OVX-induced Wistar rat osteoporosis model assessed as increase in serum calcitonin level at 40 mg/kg/day, ig administered for 2 weeks by RIA relative to control
Rattus norvegicus [7] = assay: Antiosteoporotic effect in OVX-induced Wistar rat osteoporosis model assessed as decrease in serum CTX level at 20 to 40 mg/kg/day, ig administered for 2 weeks by ELISA relative to control
Rattus norvegicus [8] = assay: Antiosteoporotic effect in OVX-induced Wistar rat osteoporosis model assessed as decrease in urinary DPD/Cr level at 20 to 40 mg/kg/day, ig administered for 2 weeks by ELISA relative to control; details: Urine
Rattus norvegicus [9] = assay: Antiosteoporotic effect in OVX-induced Wistar rat osteoporosis model assessed as increase in femur wet weight at 40 mg/kg/day, ig administered for 2 weeks relative to control
Rattus norvegicus [10] = assay: Antiosteoporotic effect in OVX-induced Wistar rat osteoporosis model assessed as increase in femur dry weight at 40 mg/kg/day, ig administered for 2 weeks relative to control
Rattus norvegicus [11] = assay: Antiosteoporotic effect in OVX-induced Wistar rat osteoporosis model assessed as increase in femur ash weight at 40 mg/kg/day, ig administered for 2 weeks relative to control
Rattus norvegicus [12] = assay: Antiosteoporotic effect in OVX-induced Wistar rat osteoporosis model assessed as increase in bone calcium content at 40 mg/kg/day, ig administered for 2 weeks by flame atomic absorption spectroscopy relative to control
Rattus norvegicus [13] = assay: Antiosteoporotic effect in OVX-induced Wistar rat osteoporosis model assessed as increase in bone mineral density of left femur at 20 to 40 mg/kg/day, ig administered for 2 weeks by dual-energy X-ray absorptiometry relative to control
Rattus norvegicus [14] = assay: Antiosteoporotic effect in OVX-induced Wistar rat osteoporosis model assessed as increase in bone mineral content of left femur at 20 to 40 mg/kg/day, ig administered for 2 weeks by dual-energy X-ray absorptiometry relative to control
Rattus norvegicus [15] = assay: Antiosteoporotic effect in OVX-induced Wistar rat osteoporosis model assessed as increase in bone mineral density of third lumbar vertebra at 20 to 40 mg/kg/day, ig administered for 2 weeks by dual-energy X-ray absorptiometry relative to control
Rattus norvegicus [16] = assay: Antiosteoporotic effect in OVX-induced Wistar rat osteoporosis model assessed as increase in bone mineral content of third lumbar vertebra at 20 to 40 mg/kg/day, ig administered for 2 weeks by dual-energy X-ray absorptiometry relative to control
Rattus norvegicus [17] = assay: Antiosteoporotic effect in OVX-induced Wistar rat osteoporosis model assessed as increase in ultimate load of left femur at 20 to 40 mg/kg/day, ig administered for 2 weeks by […] relative to control
Rattus norvegicus [18] = assay: Antiosteoporotic effect in OVX-induced Wistar rat osteoporosis model assessed as increase in ultimate load of third lumbar vertebra at 20 to 40 mg/kg/day, ig administered for 2 weeks by […] relative to control
Rattus norvegicus [19] = assay: Antiosteoporotic effect in OVX-induced Wistar rat osteoporosis model assessed as increase in trabecular thickness in left femur at 20 to 40 mg/kg/day, ig administered for 2 weeks by histomorhological analysis relative to control
Rattus norvegicus [20] = assay: Antiosteoporotic effect in OVX-induced Wistar rat osteoporosis model assessed as increase in trabecular number in left femur at 20 to 40 mg/kg/day, ig administered for 2 weeks by histomorhological analysis relative to control
Rattus norvegicus [21] = assay: Antiosteoporotic effect in OVX-induced Wistar rat osteoporosis model assessed as decrease in trabecular separation in left femur at 20 to 40 mg/kg/day, ig administered for 2 weeks by histomorhological analysis relative to control
Rattus norvegicus [22] = assay: Antiosteoporotic effect in OVX-induced Wistar rat osteoporosis model assessed as increase in trabecular thickness in third lumbar vertebra at 20 to 40 mg/kg/day, ig administered for 2 weeks by histomorhological analysis relative to control
Rattus norvegicus [23] = assay: Antiosteoporotic effect in OVX-induced Wistar rat osteoporosis model assessed as increase in trabecular number in third lumbar vertebra at 20 to 40 mg/kg/day, ig administered for 2 weeks by histomorhological analysis relative to control
Rattus norvegicus [24] = assay: Antiosteoporotic effect in OVX-induced Wistar rat osteoporosis model assessed as decrease in trabecular separation in third lumbar vertebra at 20 to 40 mg/kg/day, ig administered for 2 weeks by histomorhological analysis relative to control
Rattus norvegicus [25] = assay: Antiosteoporotic effect in OVX-induced Wistar rat osteoporosis model assessed as increase in serum calcium level at 1 mg/kg/day, ig administered for 2 weeks by colorimetric method relative to control
Rattus norvegicus [26] = assay: Antiosteoporotic effect in OVX-induced Wistar rat osteoporosis model assessed as decrease in serum ALP level at 1 mg/kg/day, ig administered for 2 weeks by colorimetric method relative to control
Rattus norvegicus [27] = assay: Antiosteoporotic effect in OVX-induced Wistar rat osteoporosis model assessed as decrease in serum TRAP level at 1 mg/kg/day, ig administered for 2 weeks by colorimetric method relative to control
Rattus norvegicus [28] = assay: Antiosteoporotic effect in OVX-induced Wistar rat osteoporosis model assessed as increase in serum estradiol level at 1 mg/kg/day, ig administered for 2 weeks by RIA relative to control
Rattus norvegicus [29] = assay: Antiosteoporotic effect in OVX-induced Wistar rat osteoporosis model assessed as increase in serum calcitonin level at 1 mg/kg/day, ig administered for 2 weeks by RIA relative to control
Rattus norvegicus [30] = assay: Antiosteoporotic effect in OVX-induced Wistar rat osteoporosis model assessed as decrease in serum CTX level at 1 mg/kg/day, ig administered for 2 weeks by ELISA relative to control
Rattus norvegicus [31] = assay: Antiosteoporotic effect in OVX-induced Wistar rat osteoporosis model assessed as decrease in urinary DPD/Cr level at 1 mg/kg/day, ig administered for 2 weeks by ELISA relative to control; details: Urine
Rattus norvegicus [32] = assay: Antiosteoporotic effect in OVX-induced Wistar rat osteoporosis model assessed as increase in femur wet weight at 1 mg/kg/day, ig administered for 2 weeks relative to control
Rattus norvegicus [33] = assay: Antiosteoporotic effect in OVX-induced Wistar rat osteoporosis model assessed as increase in femur dry weight at 1 mg/kg/day, ig administered for 2 weeks relative to control
Rattus norvegicus [34] = assay: Antiosteoporotic effect in OVX-induced Wistar rat osteoporosis model assessed as increase in femur ash weight at 1 mg/kg/day, ig administered for 2 weeks relative to control
Rattus norvegicus [35] = assay: Antiosteoporotic effect in OVX-induced Wistar rat osteoporosis model assessed as increase in bone calcium content at 1 mg/kg/day, ig administered for 2 weeks by flame atomic absorption spectroscopy relative to control
Rattus norvegicus [36] = assay: Antiosteoporotic effect in OVX-induced Wistar rat osteoporosis model assessed as increase in bone mineral density of left femur at 1 mg/kg/day, ig administered for 2 weeks by dual-energy X-ray absorptiometry relative to control
Rattus norvegicus [37] = assay: Antiosteoporotic effect in OVX-induced Wistar rat osteoporosis model assessed as increase in bone mineral content of left femur at 1 mg/kg/day, ig administered for 2 weeks by dual-energy X-ray absorptiometry relative to control
Rattus norvegicus [38] = assay: Antiosteoporotic effect in OVX-induced Wistar rat osteoporosis model assessed as increase in bone mineral density of third lumbar vertebra at 1 mg/kg/day, ig administered for 2 weeks by dual-energy X-ray absorptiometry relative to control
Rattus norvegicus [39] = assay: Antiosteoporotic effect in OVX-induced Wistar rat osteoporosis model assessed as increase in bone mineral content of third lumbar vertebra at 1 mg/kg/day, ig administered for 2 weeks by dual-energy X-ray absorptiometry relative to control
Rattus norvegicus [40] = assay: Antiosteoporotic effect in OVX-induced Wistar rat osteoporosis model assessed as increase in ultimate load of left femur at 1 mg/kg/day, ig administered for 2 weeks by […] relative to control
Rattus norvegicus [41] = assay: Antiosteoporotic effect in OVX-induced Wistar rat osteoporosis model assessed as increase in ultimate load of third lumbar vertebra at 1 mg/kg/day, ig administered for 2 weeks by […] relative to control
Rattus norvegicus [42] = assay: Antiosteoporotic effect in OVX-induced Wistar rat osteoporosis model assessed as increase in trabecular thickness in left femur at 1 mg/kg/day, ig administered for 2 weeks by histomorhological analysis relative to control
Rattus norvegicus [43] = assay: Antiosteoporotic effect in OVX-induced Wistar rat osteoporosis model assessed as increase in trabecular number in left femur at 1 mg/kg/day, ig administered for 2 weeks by histomorhological analysis relative to control
Rattus norvegicus [44] = assay: Antiosteoporotic effect in OVX-induced Wistar rat osteoporosis model assessed as decrease in trabecular separation in left femur at 1 mg/kg/day, ig administered for 2 weeks by histomorhological analysis relative to control

Measured: Activity

O=C1O[C@H]2[C@@H]3OC(=O)c4cc(O)c(O)c(O)c4-c4c(cc(O)c(O)c4O)C(=O)OC[C@H]2O[C@@H](OC(=O)c2cc(O)c(O)c(O)c2)[C@@H]3OC(=O)c2cc(O)c(O)c3c2[C@@H]2C1=CC(=O)[C@](O)(O3)C2(O)O
inactive: Rattus norvegicus [2] | Rattus norvegicus [24]
active: Rattus norvegicus [1] | Rattus norvegicus [3] | Rattus norvegicus [4] | Rattus norvegicus [5] | Rattus norvegicus [6] | Rattus norvegicus [7] | Rattus norvegicus [8] | Rattus norvegicus [9] | Rattus norvegicus [10] | Rattus norvegicus [11] | Rattus norvegicus [12] | Rattus norvegicus [13] | Rattus norvegicus [14] | Rattus norvegicus [15] | Rattus norvegicus [16] | Rattus norvegicus [17] | Rattus norvegicus [18] | Rattus norvegicus [19] | Rattus norvegicus [20] | Rattus norvegicus [21] | Rattus norvegicus [22] | Rattus norvegicus [23]

C#C[C@@]1(O)[C@H](O)C[C@H]2[C@@H]3CCc4cc(OC5CCCC5)ccc4[C@H]3CC[C@@]21C
active: Rattus norvegicus [25] | Rattus norvegicus [26] | Rattus norvegicus [27] | Rattus norvegicus [28] | Rattus norvegicus [29] | Rattus norvegicus [30] | Rattus norvegicus [31] | Rattus norvegicus [32] | Rattus norvegicus [33] | Rattus norvegicus [34] | Rattus norvegicus [35] | Rattus norvegicus [36] | Rattus norvegicus [37] | Rattus norvegicus [38] | Rattus norvegicus [39] | Rattus norvegicus [40] | Rattus norvegicus [41] | Rattus norvegicus [42] | Rattus norvegicus [43] | Rattus norvegicus [44]
